Literature values in patent publication US20060120979A1, “Skin care composition comprising hydroquinone and a substantially anhydrous base” (priority 2004, published 2006).

Oc1ccc(O)cc1 [Hydroquinone]
solubility in alcohols (alcohols): freely soluble
solubility in water (water): less soluble
